# Measured values published in ChEMBL document CHEMBL3885861, “Open TG-GATES”.
# Species on record: Rattus norvegicus
# Assay: Open TG-GATES - Regimen: Single
# Assay type: toxicity, organism-based, Sprague-Dawley
# Parameters: regimen Single, gender Male, age 6 weeks
# Details: in vivo, po, 2000 mg/kg, route gavage, dose level High; for APTT / Bas / Eos / Fbg / Hb / Ht / Lym / MCH / MCHC / MCV / Mono / Neu / PT / Plat / RBC / Ret / WBC: tissue Blood; for KIDNEY_L / KIDNEY_R / KIDNEY_TOTAL: tissue Kidney; for LIVER: tissue Liver; for A/G / ALP / ALT / AST / BUN / CRE / Ca / Cl / DBIL / GLC / IP / K / LDH / Na / PL / RALB / TBIL / TC / TG / TP / gamma-GTP: tissue Plasma
smiles,measurement,setting,value
CCOc1ccc(NC(=O)CC(C)O)cc1 (configuration not stated) [BUCETIN],TERMINAL_BW,3 h,211.9 g
same,APTT,3 h,16.2 s
same,Bas,3 h,0%
same,Eos,3 h,1%
same,Fbg,3 h,308.4 mg/dL
same,Hb,3 h,13.1 g/dL
same,Ht,3 h,38.8%
same,Lym,3 h,74.8%
same,MCH,3 h,20.8 pg
same,MCHC,3 h,33.8%
same,MCV,3 h,61.7 fL
same,Mono,3 h,2.8%
same,Neu,3 h,21%
same,PT,3 h,13.7 s
same,Plat,3 h,123.8 x10_4/uL
same,RBC,3 h,628.8 x10_4/ul
same,Ret,3 h,8.2%
same,WBC,3 h,70.6 x10_2/uL
same,KIDNEY_L,3 h,0.9 g
same,KIDNEY_R,3 h,0.9 g
same,KIDNEY_TOTAL,3 h,1.9 g
same,LIVER,3 h,9.3 g
same,A/G,3 h,0.9
same,ALP,3 h,1367.8 IU/L
same,ALT,3 h,30.4 IU/L
same,AST,3 h,66 IU/L
same,BUN,3 h,9.2 mg/dL
same,CRE,3 h,0.1 mg/dL
same,Ca,3 h,10.8 mg/dL
same,Cl,3 h,103.8 meq/L
same,DBIL,3 h,0.032 mg/dL
same,GLC,3 h,198.4 mg/dL
same,IP,3 h,9.5 mg/dL
same,K,3 h,4.1 meq/L
same,LDH,3 h,67 IU/L
same,Na,3 h,141 meq/L
same,PL,3 h,148 mg/dL
same,RALB,3 h,2.5 g/dL
same,TBIL,3 h,0.054 mg/dL
same,TC,3 h,83.4 mg/dL
same,TG,3 h,52.2 mg/dL
same,TP,3 h,5.4 g/dL
same,gamma-GTP,3 h,1.2 IU/L
same,TERMINAL_BW,6 h,209.3 g
same,APTT,6 h,21.1 s
same,Bas,6 h,0.2%
same,Eos,6 h,0.4%
same,Fbg,6 h,315.2 mg/dL
same,Hb,6 h,13.7 g/dL
same,Ht,6 h,40.6%
same,Lym,6 h,79%
same,MCH,6 h,20.7 pg
same,MCHC,6 h,33.7%
same,MCV,6 h,61.2 fL
same,Mono,6 h,2.2%
same,Neu,6 h,17.8%
same,PT,6 h,13.5 s
same,Plat,6 h,124.4 x10_4/uL
same,RBC,6 h,662.8 x10_4/ul
same,Ret,6 h,8.2%
same,WBC,6 h,64.5 x10_2/uL
same,KIDNEY_L,6 h,0.9 g
same,KIDNEY_R,6 h,0.9 g
same,KIDNEY_TOTAL,6 h,1.9 g
same,LIVER,6 h,8.5 g
same,A/G,6 h,0.9
same,ALP,6 h,1336.4 IU/L
same,ALT,6 h,36.2 IU/L
same,AST,6 h,68.6 IU/L
same,BUN,6 h,8.4 mg/dL
same,CRE,6 h,0.1 mg/dL
same,Ca,6 h,10.6 mg/dL
same,Cl,6 h,102.2 meq/L
same,DBIL,6 h,0.032 mg/dL
same,GLC,6 h,201.8 mg/dL
same,IP,6 h,10.1 mg/dL
same,K,6 h,3.7 meq/L
same,LDH,6 h,79.4 IU/L
same,Na,6 h,141.2 meq/L
same,PL,6 h,147.4 mg/dL
same,RALB,6 h,2.6 g/dL
same,TBIL,6 h,0.048 mg/dL
same,TC,6 h,85.2 mg/dL
same,TG,6 h,27.6 mg/dL
same,TP,6 h,5.5 g/dL
same,gamma-GTP,6 h,1.4 IU/L
same,TERMINAL_BW,9 h,208.4 g
same,APTT,9 h,18.5 s
same,Bas,9 h,0%
same,Eos,9 h,0.8%
same,Fbg,9 h,314.8 mg/dL
same,Hb,9 h,13.3 g/dL
same,Ht,9 h,39%
same,Lym,9 h,80.6%
same,MCH,9 h,20.8 pg
same,MCHC,9 h,34%
same,MCV,9 h,61.1 fL
same,Mono,9 h,2.2%
same,Neu,9 h,16.2%
same,PT,9 h,14.1 s
same,Plat,9 h,119.7 x10_4/uL
same,RBC,9 h,639.8 x10_4/ul
same,Ret,9 h,8.3%
same,WBC,9 h,54.6 x10_2/uL
same,KIDNEY_L,9 h,0.9 g
same,KIDNEY_R,9 h,0.9 g
same,KIDNEY_TOTAL,9 h,1.9 g
same,LIVER,9 h,8.2 g
same,A/G,9 h,0.9
same,ALP,9 h,1215 IU/L
same,ALT,9 h,28.8 IU/L
same,AST,9 h,62.8 IU/L
same,BUN,9 h,8.2 mg/dL
same,CRE,9 h,0.1 mg/dL
same,Ca,9 h,10.5 mg/dL
same,Cl,9 h,103.4 meq/L
same,DBIL,9 h,0.042 mg/dL
same,GLC,9 h,199.2 mg/dL
same,IP,9 h,9.8 mg/dL
same,K,9 h,4.1 meq/L
same,LDH,9 h,64.2 IU/L
same,Na,9 h,140.6 meq/L
same,PL,9 h,150.6 mg/dL
same,RALB,9 h,2.6 g/dL
same,TBIL,9 h,0.052 mg/dL
same,TC,9 h,82.6 mg/dL
same,TG,9 h,43.6 mg/dL
same,TP,9 h,5.5 g/dL
same,gamma-GTP,9 h,1 IU/L
same,TERMINAL_BW,24 h,202.1 g
same,APTT,24 h,17.9 s
same,Bas,24 h,0.4%
same,Eos,24 h,0.8%
same,Fbg,24 h,294.2 mg/dL
same,Hb,24 h,14 g/dL
same,Ht,24 h,41.4%
same,Lym,24 h,79.2%
same,MCH,24 h,20.9 pg
same,MCHC,24 h,33.8%
same,MCV,24 h,61.7 fL
same,Mono,24 h,3%
same,Neu,24 h,16%
same,PT,24 h,14.4 s
same,Plat,24 h,128.9 x10_4/uL
same,RBC,24 h,670 x10_4/ul
same,Ret,24 h,7.1%
same,WBC,24 h,75.9 x10_2/uL
same,KIDNEY_L,24 h,1 g
same,KIDNEY_R,24 h,0.9 g
same,KIDNEY_TOTAL,24 h,1.9 g
same,LIVER,24 h,8.4 g
same,A/G,24 h,0.9
same,ALP,24 h,1381.2 IU/L
same,ALT,24 h,46.2 IU/L
same,AST,24 h,96.4 IU/L
same,BUN,24 h,11.8 mg/dL
same,CRE,24 h,0.2 mg/dL
same,Ca,24 h,10.9 mg/dL
same,Cl,24 h,104.8 meq/L
same,DBIL,24 h,0.078 mg/dL
same,GLC,24 h,175.2 mg/dL
same,IP,24 h,9.7 mg/dL
same,K,24 h,4.1 meq/L
same,LDH,24 h,102.4 IU/L
same,Na,24 h,142.4 meq/L
same,PL,24 h,166.6 mg/dL
same,RALB,24 h,2.7 g/dL
same,TBIL,24 h,0.078 mg/dL
same,TC,24 h,97.6 mg/dL
same,TG,24 h,57 mg/dL
same,TP,24 h,5.8 g/dL
same,gamma-GTP,24 h,1 IU/L
